The term pIC50 denotes −log10 of the IC50, conventionally taken in molar units. Read a high pIC50 as a small IC50.

The structures appear in SMILES notation. pIC50: −log10 of the molar value.

The values below come from patent US20050143430A1, “Catechol bioisosteres” (priority 2002, published 2005).

The target of this assay is Insulin-like Growth Factor 1 Receptor (IGF-1R) (Homo sapiens, UniProt P08069). Description: IGF-1R inhibition in vitro. Format: biochemical.
Chain of Insulin-like Growth Factor 1 Receptor (IGF-1R) (P08069 31-1367, species assumed): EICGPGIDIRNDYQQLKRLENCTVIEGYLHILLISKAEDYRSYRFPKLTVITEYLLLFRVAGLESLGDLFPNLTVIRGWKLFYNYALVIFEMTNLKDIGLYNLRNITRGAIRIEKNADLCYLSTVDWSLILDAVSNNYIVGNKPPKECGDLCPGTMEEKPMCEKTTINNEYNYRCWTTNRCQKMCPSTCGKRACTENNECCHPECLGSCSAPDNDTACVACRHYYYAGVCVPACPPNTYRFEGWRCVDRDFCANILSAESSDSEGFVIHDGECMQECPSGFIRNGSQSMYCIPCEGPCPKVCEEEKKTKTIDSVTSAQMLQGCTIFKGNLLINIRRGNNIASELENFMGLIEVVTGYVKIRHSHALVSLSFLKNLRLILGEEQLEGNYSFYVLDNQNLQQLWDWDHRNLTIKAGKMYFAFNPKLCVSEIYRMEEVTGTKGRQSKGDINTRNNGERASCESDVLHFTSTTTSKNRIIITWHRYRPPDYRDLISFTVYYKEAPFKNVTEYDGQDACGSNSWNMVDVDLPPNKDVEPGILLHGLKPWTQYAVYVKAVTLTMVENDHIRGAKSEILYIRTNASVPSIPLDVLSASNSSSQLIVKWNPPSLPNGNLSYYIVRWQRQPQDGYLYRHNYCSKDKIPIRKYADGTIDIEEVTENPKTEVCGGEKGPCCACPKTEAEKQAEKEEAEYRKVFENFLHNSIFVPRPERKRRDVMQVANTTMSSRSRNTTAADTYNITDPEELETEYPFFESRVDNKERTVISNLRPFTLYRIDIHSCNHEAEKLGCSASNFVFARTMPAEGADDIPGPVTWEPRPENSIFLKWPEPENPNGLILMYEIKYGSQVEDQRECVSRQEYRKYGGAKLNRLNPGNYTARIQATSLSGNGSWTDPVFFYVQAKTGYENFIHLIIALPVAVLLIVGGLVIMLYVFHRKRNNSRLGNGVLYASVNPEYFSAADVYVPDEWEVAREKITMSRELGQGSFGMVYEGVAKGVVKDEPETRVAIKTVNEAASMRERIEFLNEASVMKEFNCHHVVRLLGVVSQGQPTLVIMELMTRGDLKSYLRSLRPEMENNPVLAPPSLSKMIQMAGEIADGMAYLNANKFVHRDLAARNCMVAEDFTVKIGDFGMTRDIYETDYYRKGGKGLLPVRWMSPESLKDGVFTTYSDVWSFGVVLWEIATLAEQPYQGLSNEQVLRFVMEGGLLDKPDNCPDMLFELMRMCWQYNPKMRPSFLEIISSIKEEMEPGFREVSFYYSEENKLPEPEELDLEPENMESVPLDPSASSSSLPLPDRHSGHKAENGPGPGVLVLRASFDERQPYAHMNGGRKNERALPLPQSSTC

As to `N#CC(=Cc1ccc(O)c(O)c1)C(=O)c1ccc2[nH]c(=O)oc2c1` (single isomer, unassigned) [GB16-11], the pIC50 is 6.70. For `N#CC(=Cc1ccc(O)c(O)c1)C(=O)c1ccc2[nH]c(=O)oc2c1` (single isomer, unassigned) [GB 16-10] the value was 5.92; for `N#C/C(=C\c1ccc(O)c(O)c1)C(=O)c1ccc(O)c(O)c1` [AG 538, reference compound], 7.22. In the case of `N#C/C(=C\c1ccc2oc(=O)[nH]c2c1)C(=O)c1ccc(O)c(O)c1` [AGL 2263] it was 7.15; in that of `N#C/C(=C\c1ccc2[nH]c(=O)oc2c1)C(=O)c1ccc2[nH]c(=O)oc2c1` [GB18], 5.38; in that of `N#C/C(=C\c1ccc2oc(=O)[nH]c2c1)C(=O)c1ccc2[nH]c(=O)oc2c1` [GB 17], 4.92.
